Read-outs that look alike come from different tables or passages of the source.
Key:
Type in all cases: binding
[1] = biological target: T1, mutant protein DAPKdel (ΔS52–S57) (Homo sapiens, UniProt P53355, DEL52-57); assay: Fluorescence polarization titration of the fluorescent probe with DAPKdel
T1 construct: encoding the DAPK catalytic domain (DAPKwt, open reading frame residues 1–285) or the mutant protein DAPKdel (ΔS52–S57); Strep-tag (pASK-IBA3 vector; purified on streptactin resin) (C); made in house; host or cells: Escherichia coli DH5α
T1 sequence (P53355 with tags, fused parts or gaps DEL52-57): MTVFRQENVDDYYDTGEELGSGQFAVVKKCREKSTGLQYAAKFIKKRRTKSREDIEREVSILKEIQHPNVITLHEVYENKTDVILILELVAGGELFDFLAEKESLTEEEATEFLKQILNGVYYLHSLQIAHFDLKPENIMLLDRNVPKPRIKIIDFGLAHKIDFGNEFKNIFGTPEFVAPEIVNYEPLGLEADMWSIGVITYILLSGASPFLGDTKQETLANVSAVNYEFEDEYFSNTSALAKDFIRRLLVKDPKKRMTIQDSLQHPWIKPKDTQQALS
Experimental: (§1) Fluorescence polarization assays were performed using a Victor 3 apparatus (Perkin-Elmer Waltham, MA). The Lissamine Rhodamine B peptides based library (UMR 7200 CNRS, Strasbourg, France, Patent WO/2006/003330 [14]) was diluted in the assay buffer (50 mM HEPES, 150 mM KCl, 1 mM MgCl2, pH 7.5) to a working concentration of 0.2 µM. 15 µl of these dilutions were transferred to each well of the assay plate (Corning Costar 96-well black polystyrene plates, Model 3686, Corning, Acton, MA). All pipetting in HTS was performed on a Biomek® 2000 (Beckman Coulter, Fullerton, CA). Fluorescent polarization degrees (mFP) were measured at an excitation and emission wavelength of 530 and 610 nm, respectively. 15 µl of the assay buffer with DAPK, at a concentration of 4 µM, were added to each well. For each plate, background correction was performed with blank control wells containing no compounds.
(§2) All titration measurements were performed on a FlexStation 3 (Molecular Devices Union City, CA). The other experimental conditions were described in section “HTS of fluorescent peptides based library”. A twofold dilution cascade of the protein between 200 µM and 0.8 µM was prepared and 10 µl of these solutions were dispatched in 96-well assay plates. 10 µl of the probe solution (0.2 µM of CHPO 187-3-H11-para in assay buffer) were added to the wells and fluorescent polarization was recorded as specified before. Subsequently, 1 µl of concentrated ATP, ADP or substrate peptide (Tocris Bristol, UK) in assay buffer with 0.1 µM of the fluorescent probe was added to the wells, in order to subsequently obtain the following final concentrations of ATP, ADP or substrate peptide: 0.4, 0.8, 1.6, 3.2, 6.3, 12.5, 25, 50, and 1000 µM (the highest concentration was not performed for the peptide).
(§3) Titrations followed the same protocol as described under “ATP, ADP and substrate peptide titrations”, but under buffer conditions analogous to the ones listed under “nano-ESI-MS for the study of non-covalent complexes”. For investigations of the monomeric and the dimeric forms, NH4Ac concentrations were kept constant at 250 mM and 5 mM, respectively. To induce gradual monomerization of DAPK catalytic core, the NH4Ac concentration was stepwise augmented (5, 10, 25, 50, 100 and 250 mM) by the addition of a concentrated NH4Ac stock solution (1 M).

[2] = biological target: T2, DAPK catalytic domain (DAPKwt, residues 1–285) (Homo sapiens, UniProt P53355); assay: Fluorescence polarization titration of the fluorescent probe with DAPKwt
T2 construct: encoding the DAPK catalytic domain (DAPKwt, open reading frame residues 1–285); Strep-tag (pASK-IBA3 vector; purified on streptactin resin) (C); made in house; host or cells: Escherichia coli DH5α
T2 sequence (P53355 1-285): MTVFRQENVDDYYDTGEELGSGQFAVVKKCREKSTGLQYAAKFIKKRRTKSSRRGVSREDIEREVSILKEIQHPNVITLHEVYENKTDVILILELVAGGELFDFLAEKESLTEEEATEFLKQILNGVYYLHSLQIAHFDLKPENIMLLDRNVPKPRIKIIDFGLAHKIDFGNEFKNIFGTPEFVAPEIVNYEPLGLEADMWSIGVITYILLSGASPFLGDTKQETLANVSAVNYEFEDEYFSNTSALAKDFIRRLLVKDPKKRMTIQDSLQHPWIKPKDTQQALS
Experimental: as §1, §2, §3

[3] = biological target: T3, DAPK catalytic domain (DAPKwt) (Homo sapiens, UniProt P53355); assay: Fluorescence polarization titration of fluorophore labeled ATP with DAPKwt; settings: pH 8.8, labeled ATP 0.1 µM
T3 construct: encoding the DAPK catalytic domain (DAPKwt, open reading frame residues 1–285); Strep-tag (pASK-IBA3 vector; purified on streptactin resin) (C); made in house; host or cells: Escherichia coli DH5α
T3 sequence (P53355 1-285): as above
Experimental: as §3
To determine the Kd values of γ-[6-Aminohexyl]-ATP-Atto495 (Jena Bioscience, Jena, Germany) its concentration was set to 0.1 µM, while the rest of the conditions were kept identical to the ones described above. Fluorescence polarization was recorded at an excitation and emission wavelength of 493 nm and 520 nm respectively.

Kd ([1]; 5 mM NH4Ac, pH 8.8)	Kd ([1]; 250 mM NH4Ac, pH 8.8)	Kd ([1]; HEPES buffer pH 7.5, absence of ATP or ADP)	Kd ([1]; HEPES buffer pH 7.5, presence of ADP, ratio to DAPKdel higher than two)	Kd ([1]; HEPES buffer pH 7.5, presence of ATP, ratio to DAPKdel higher than two)	Kd ([2]; 5 mM NH4Ac, pH 8.8, conditions favoring the dimer, probe 0.1 µM)	Kd ([2]; 50 mM HEPES, 150 mM KCl, 1 mM MgCl2, pH 7.5, absence of ATP or ADP)	Kd ([2]; 250 mM NH4Ac, pH 8.8, conditions favoring the monomer, probe 0.1 µM)	Kd ([2]; HEPES buffer pH 7.5, ATP or ADP to DAPK ratios higher than two (maximal effect))	Kd ([3]; 5 mM NH4Ac, read-out: Kd of the labeled ATP for the DAPKwt dimer)	Kd ([3]; 250 mM NH4Ac, read-out: Kd of the labeled ATP for the DAPKwt monomer)	Molecule
3.4 µM	5.5 µM	20 µM	33 µM	28 µM	16.5 ± 1.2 µM	30.9 ± 2.8 µM	1.5 ± 0.2 µM	6.4 ± 0.54 µM	–	–	CCN(CC)c1ccc2c(-c3ccc(S(=O)(=O)NCCC(=O)N[C@@H](CCCNC(=N)N)C(=O)N[C@@H](Cc4ccc5ccccc5c4)C(=O)N[C@@H](CCCN)C(N)=O)cc3S(=O)(=O)[O-])c3ccc(=[N+](CC)CC)cc-3oc2c1 [CHPO 187-3-H11-para]
–	–	–	–	–	–	–	–	–	3.98 ± 0.22 µM	0.29 ± 0.011 µM	γ-[6-Aminohexyl]-ATP-Atto495
